In ChEMBL document CHEMBL3882247, “Use of dibenzofuranone derivatives to inhibit kinases” (2013):
Calls of active or inactive are those of the source. The rule behind the calls is not given here.

How the values were obtained:
[1] = molecular target: T1, Casein kinase II (Homo sapiens) (UniProt P67870+P68400+P19784); assay: Inhibition of CK2 (unknown origin) assessed as residual activity using E-peptide as substrate at 10 uM incubated for 10 mins prior to testing by capillary electrophoretic analysis; type: protein-complex assay
Casein kinase 2 = Casein kinase 2 (Rattus norvegicus, UniProt P19139); assay: Inhibition of rat liver CK2 using RRRADDSDDDDD as substrate after 10 mins in presence of [gamma-33P]-ATP
Casein kinase 2, sequence (P67874 whole entry): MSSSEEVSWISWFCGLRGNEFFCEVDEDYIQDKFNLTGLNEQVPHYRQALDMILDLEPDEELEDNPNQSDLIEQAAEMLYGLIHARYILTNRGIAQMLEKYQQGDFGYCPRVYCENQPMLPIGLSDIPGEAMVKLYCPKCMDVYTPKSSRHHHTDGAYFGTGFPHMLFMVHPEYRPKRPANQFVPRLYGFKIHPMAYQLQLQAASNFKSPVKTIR
Casein kinase 2, sequence (P19139 whole entry): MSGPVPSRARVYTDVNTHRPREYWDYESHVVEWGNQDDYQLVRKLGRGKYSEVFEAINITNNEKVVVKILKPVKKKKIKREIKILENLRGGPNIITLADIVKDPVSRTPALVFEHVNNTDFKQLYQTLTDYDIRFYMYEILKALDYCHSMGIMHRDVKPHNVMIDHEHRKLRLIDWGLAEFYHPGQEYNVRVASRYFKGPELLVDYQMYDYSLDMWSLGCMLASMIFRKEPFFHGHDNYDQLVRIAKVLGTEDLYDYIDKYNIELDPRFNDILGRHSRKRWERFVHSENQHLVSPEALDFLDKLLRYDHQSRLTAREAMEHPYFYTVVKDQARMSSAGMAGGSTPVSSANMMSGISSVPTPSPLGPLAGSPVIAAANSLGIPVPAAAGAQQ

LNCaP [2] = assay: Cytotoxicity against human LNCAP cells assessed as cell viability at 25 uM after 48 hrs by MTT assay; type: functional
LNCaP [3] = assay: Cytotoxicity against human LNCAP cells assessed as cell viability at 50 uM after 24 hrs by MTT assay; type: functional
LNCaP [4] = assay: Induction of apoptosis in human LNCAP cells assessed as PARP cleavage at 25 to 50 uM after 24 to 48 hrs by Western blot analysis; type: functional, cell-based
LNCaP [5] = assay: Cytotoxicity against human LNCAP cells assessed as cell viability at 50 uM after 48 hrs by MTT assay; type: functional
LNCaP [6] = assay: Cytotoxicity against human LNCAP cells assessed as cell viability at 50 uM after 72 hrs by MTT assay; type: functional
LNCaP [7] = assay: Cytotoxicity against human LNCAP cells assessed as cell viability at 25 uM after 24 hrs by MTT assay; type: functional
LNCaP [8] = assay: Cytotoxicity against human LNCAP cells assessed as decrease in cell viability after 24 to 72 hrs by MTT assay; type: functional, cell-based
LNCaP [9] = assay: Induction of apoptosis in human LNCAP cells assessed as PARP cleavage after 24 to 48 hrs by Western blot analysis; type: functional, cell-based
[10] = molecular target: T1, Casein kinase II (Homo sapiens); assay: Inhibition of CK2 in human LNCAP cell lysates after 24 to 48 hrs in presence of [gamma-32P]ATP by radiometric analysis; type: cell-based

CC(=O)Oc1c(Cl)c(Cl)c2oc(C(=O)C=C(C)C)c(N)c2c1C#N
Activity [1]: 7%

O=c1oc2c(O)c(O)cc3c(=O)oc4c(O)c(O)cc1c4c23 [ELLAGIC ACID]
IC50 (Casein kinase 2): 0.04 µM

Brc1c(Br)c(Br)c2[nH]nnc2c1Br
Activity (LNCaP [2]): Active
Activity (LNCaP [3]): Active
Activity (LNCaP [4]): Active
Activity (LNCaP [5]): Active
Activity (LNCaP [6]): Active
Activity (LNCaP [7]): Active
Activity (LNCaP [8]): Dose-dependent effect

Cc1ccc(N/C=C2\C(=O)CCc3c2oc2c(Cl)c(Cl)c(O)cc32)cc1
Activity [1]: < 4%
Activity (LNCaP [9]): Dose-dependent effect
Activity (LNCaP [8]): Dose-dependent effect

CC(C)=CC(=O)c1oc2c(Cl)c(Cl)c(O)c(C#N)c2c1N
Activity [1]: < 4%

CCOC(=O)c1oc2c(Cl)c(Cl)c(OC(C)=O)c(C#N)c2c1N
Activity [1]: 31%

COc1ccc(/N=C/c2c(O)ccc3c2oc2cc(Cl)c(O)c(Cl)c23)cc1
inhibition [10]: Active
Activity (LNCaP [8]): Dose-dependent effect

COc1ccc(N/C=C2\C(=O)CCc3c2oc2cc(Cl)c(O)c(Cl)c32)cc1
inhibition [10]: Active
Activity (LNCaP [8]): Dose-dependent effect
